Structures are written as SMILES. Read-outs that look alike come from different tables or passages of the source.

Results on two molecules are retold here after patent US7049311B1, “Pyrrolbenzodiazepines” (Spirogen Limited, priority 1998, dated 2006).

One data set has as its system HCC-2998. Nature of the data set: NCI in vitro cytotoxicity screen. It counts as cell-based. The note with it: Homo sapiens, HCC 2998, 48 h, read-out: LC50. Here is the method: (§1) The National Cancer Institute (NCI), Bethesda, Md., USA has available an in vitro cytotoxicity screen which consists of approximately 60 human tumour cell lines against which compounds are tested at a minimum of five concentrations each differing 10-fold. A 48 hour continuous exposure protocol is used, where cell viability or growth is estimated with an SRB protein assay.
(§2) The test compounds were evaluated against approximately 60 human tumour cell lines. The NCI screening procedures were described in detail by Monks and co-workers (Monks, A et al., Journal of the National Cancer Institute, 1991, 83, 757). Briefly, cell suspensions were diluted according to the particular cell type and the expected target cell density (5000-40,000 cells per well based on cell growth characteristics), and added by pipette (100 μL) into 96-well microtitre plates. The cells were allowed a preincubation period of 24 hours at 37° C. for stabilisation. Dilutions at twice the intended test concentration were added at time zero in 100 μL aliquots to the wells. The test compounds were evaluated at five 10-fold dilutions (10^−4, 10^−5, 10^−6, 10^−7 and 10^−[…]). The test compounds were incubated for 48 hours in 5% CO2 atmosphere and 100% humidity. The cells were then assayed using the sulphorhodamine B assay. A plate reader was used to read the optical densities and a microcomputer processed the readings into LC50 values, which is the dosage required to kill half of the cells.

The test system of another data set is MALME-3M. Nature of the data set: NCI in vitro cytotoxicity screen. Type of data set: cell-based. To be noted: Homo sapiens, Malme-3M, 48 h, read-out: LC50. The protocol: as §1, §2
In a further data set the test system is NCI-H23. Nature of the data set: NCI in vitro cytotoxicity screen. To be noted: Homo sapiens, NCI-H23, 48 h, read-out: LC50. Type of data set: cell-based. The protocol:
as §1, §2

The test system of another data set is RXF 393. Briefly: NCI in vitro cytotoxicity screen. It counts as cell-based. The note with it: Homo sapiens, RXF 393, 48 h, read-out: LC50. The protocol: as §1, §2
In a further data set the test system is SK-MEL-2. Nature of the data set: NCI in vitro cytotoxicity screen. It counts as cell-based. To be noted: Homo sapiens, SK-MEL-2, 48 h, read-out: LC50. The protocol:
as §1, §2

In another data set the test system is A2780cisR. Briefly: Ovarian carcinoma cytotoxicity assay. Type of data set: cell-based, human. The note with it: Homo sapiens, A2780cisR. Here is the method: (§3) Compounds of the invention (and Anthramycin as a comparison) were evaluated for their cytotoxic activity in ovarian cell lines by Dr Lloyd R. Kelland's group at The Institute of Cancer Research, Sutton, UK. The five cell lines investigated were SKOV-3, A2780/A2780cisR and CH1/CH1cisR (cis R denotes that the cell line is resistant to cisplatin).
(§4) Single viable cells were seeded in growth medium (160 μL) in […] microtitre plates and allowed to attach overnight. […] After 96 hours, the medium was removed and the remaining cells fixed by exposure to 10% trichloroacetic acid on ice for 30 minutes. The wells were then washed 3-4 times with tap water, air dried overnight and treated with 100 μL of sulphorhodamine B (0.4%) dissolved in 1% acetic acid. Staining was allowed to continue for 10-15 minutes, then the wells were washed 3-4 times with 1% acetic acid, air dried and then added to Tris base (100 μL of 10 mM). Plates were then shaken and absorbance readings at 540 nm were determined using a plate reader. By using the Quattro-Pro software package, the IC50 values were calculated from plots of concentration versus percentage absorbance (compared with 8 untreated wells).

The next data set deals with A2780. Briefly: Ovarian carcinoma cytotoxicity assay. The note with it: Homo sapiens. It counts as cell-based, human. The protocol: as §3, §4
The next data set has as its system CH1cisR. Briefly: Ovarian carcinoma cytotoxicity assay. Type of data set: cell-based. To be noted: Homo sapiens, CH1cisR. The protocol:
as §3, §4

For the next data set, the system named is CH1. Nature of the data set: Ovarian carcinoma cytotoxicity assay. It counts as cell-based. To be noted: Homo sapiens. The protocol:
as §3, §4

The test system of another data set is SKOV-3. Nature of the data set: Ovarian carcinoma cytotoxicity assay. It counts as cell-based. To be noted: Homo sapiens. The protocol: as §3, §4
The next data set has as its system COLO 205. Briefly: NCI in vitro cytotoxicity screen. It counts as cell-based. To be noted: Homo sapiens, COLO 205, 48 h, read-out: LC50. Here is the method: as §1, §2
For another data set, the system named is M14. Briefly: NCI in vitro cytotoxicity screen. Type of data set: cell-based. To be noted: Homo sapiens, M14, 48 h, read-out: LC50. Here is the method: as §1, §2
The next data set has as its system MDA-MB-435. Briefly: NCI in vitro cytotoxicity screen. It counts as cell-based. To be noted: Homo sapiens, MDA-MB-435, 48 h, read-out: LC50. The protocol:
as §1, §2

Another data set deals with NCI-H522. Nature of the data set: NCI in vitro cytotoxicity screen. Type of data set: cell-based. To be noted: Homo sapiens, NCI-H522, 48 h, read-out: LC50. Here is the method: as §1, §2
Another data set relates to SK-MEL-28. Briefly: NCI in vitro cytotoxicity screen. It counts as cell-based. The note with it: Homo sapiens, SK-MEL-28, 48 h, read-out: LC50. Here is the method:
as §1, §2

The test system of the next data set is SK-MEL-5. Briefly: NCI in vitro cytotoxicity screen. It counts as cell-based. To be noted: Homo sapiens, SK-MEL-5, 48 h, read-out: LC50. The protocol:
as §1, §2

The subject of a further data set is UACC-257. Briefly: NCI in vitro cytotoxicity screen. It counts as cell-based. To be noted: Homo sapiens, UACC-257, 48 h, read-out: LC50. The protocol: as §1, §2
Another data set deals with UACC-62. Nature of the data set: NCI in vitro cytotoxicity screen. It counts as cell-based. The note with it: Homo sapiens, UACC-62, 48 h, read-out: LC50. Here is the method:
as §1, §2

Data set [1] has as its system approximately 60 human tumour cell lines. Nature of the data set: NCI in vitro cytotoxicity screen, whole panel. The note with it: CNS panel. Type of data set: cell-based. Here is the method:
as §1
as §2, with “The test compounds were incubated for 48 hours in 5% CO2 atmosphere and 100% humidity. The cells were then assayed using the sulphorhodamine B assay.” left out

As to `COc1cc2c(cc1OCc1ccccc1)N=C[C@@H]1CC(CCOC(C)=O)=CN1C2=O` [UP2051 (31), (11aS)-2-(Acyloxy-2-ethyl)-8-benzyloxy-7-methoxy-1,2,3,11a-tetrahydro-5H-pyrrolo[2,1-c][1,4]benzodiazepin-5-one], the CC50 with HCC-2998 was found to be 5.2 µM; in the data set with MALME-3M, 5.1 µM; in the data set on NCI-H23, 9.3 µM; in the data set on RXF 393, 0.8 µM; with SK-MEL-2, 7.6 µM. Besides, the IC50 – broadly, the concentration that gives 50% inhibition – with A2780cisR (96 h, read-out: IC50 A2780cisR, cisplatin-resistant, 96 hours, sulphorhodamine B) was 0.27 µM; in the data set on A2780 (A2780, 96 h, read-out: IC50 A2780, 96 hours, sulphorhodamine B), 0.1 µM; in the data set with CH1cisR (96 h, read-out: IC50 CH1cisR, cisplatin-resistant, 96 hours, sulphorhodamine B) it was 0.16 µM; in the data set with CH1 (CH1, 96 h, read-out: IC50 CH1, 96 hours, sulphorhodamine B), 0.105 µM; in the data set with SKOV-3 (SK-OV-3, 96 h, read-out: IC50 Skov3, 96 hours, sulphorhodamine B), 0.46 µM.

As to `O=C1c2cc(-c3ccccc3)ccc2N=C[C@@H]2CCCN12` [UP2026 (136), (11aS)-7-Phenyl-1,2,3,11a-tetrahydro-5H-pyrrolo[2,1-c][1,4]benzodiazepin-5-one], the CC50 with COLO 205 was 8.8 µM; in the data set with HCC-2998 it was 6.4 µM; with M14 it was 7.8 µM; with MALME-3M it was 6.1 µM; in the data set with MDA-MB-435, 6.3 µM; with NCI-H522 it was 7.8 µM. The CC50 with RXF 393 worked out at 7.6 µM; in the data set on SK-MEL-28, 7.1 µM; in the data set on SK-MEL-2, 7.4 µM; with SK-MEL-5, 9 µM; in the data set on UACC-257, 7.7 µM; with UACC-62, 6.6 µM. The IC50 in the data set on A2780cisR (cisplatin-resistant, 96 hours, sulphorhodamine B, read-out: IC50 A2780cisR) was found to be 3.7 µM; with A2780 (A2780, 96 hours, sulphorhodamine B, read-out: IC50 A2780), 1.15 µM; in the data set with CH1cisR (cisplatin-resistant, 96 hours, sulphorhodamine B, read-out: IC50 CH1cisR), 1.45 µM; in the data set with CH1 (CH1, 96 hours, sulphorhodamine B, read-out: IC50 CH1), 1.5 µM; in the data set on SKOV-3 (SK-OV-3, 96 hours, sulphorhodamine B, read-out: IC50 Skov3), 4.9 µM. Moreover, the “cytotoxicity in the CNS cell line panel” value in data set [1] is “inactive”.
